“Also recorded” adds a separate entry of the source.
How the values were obtained:
Format in all cases: cell-based, human
[1] = test system: SMN protein in iPS-SMA cells; experiment: Western blot analysis of SMN protein in drug-treated iPS-SMA cells; details: corrected to beta-actin, two days after drug treatment, 1 mM valproic acid or tobramycin, n=3
Protocol: Protein isolation and western blot analysis. Cells were isolated, suspended in 1% Triton X-100 lysis buffer supplemented with 1% protease inhibitor cocktail (Sigma), triturated and centrifuged at 16,060 g for 10 min at 4° C. Ten to twenty micrograms of protein was separated on 12% SDS-polyacrylamide gel, transferred to a nitrocellulose membrane and probed with a primary antibody against SMN (mouse monoclonal), followed by a horseradish-peroxidase-conjugated secondary antibody (Promega), and then visualized using ECL chemiluminescence (Amersham). As a control, the membrane was stripped and re-probed for beta-actin. For semiquantitative analysis, SMN signal intensity was analyzed and corrected with respect to beta-actin.
Finally, we assessed whether SMN-inducing compounds could increase SMN levels in the iPS-SMA cellular context because this would be an important proof-of-principle for the further development of drug screens. SMN protein is found in both the cytoplasm and nuclear aggregate structures called gems, and the number of gems present is inversely correlated to disease severity (Coovert, D. D. et al. The survival motor neuron protein in spinal muscular atrophy, Hum. Mol. Genet. 6, 1205-1214, 1997). […] We are at present assessing gem formation in differentiating motor neurons and have shown that they can indeed be detected (FIG. 14A, B).

iPS-SMA cells = experiment: Nuclear gem localization (SMN immunostaining) in iPS-SMA-derived neurons and astrocytes after drug treatment; details: 1 mM valproic acid or tobramycin; 2 days of drug treatment; gems counted in 100 nuclei; P<0.05, ANOVA
Protocol: (§1) Immunocytochemistry. Cells were fixed in 4% paraformaldehyde or 1:1 acetone/methanol for 20 min at room temperature and rinsed with PBS. Nonspecific labeling was blocked and the cells were permeabilized with 5% normal goat serum and/or 5% normal donkey serum containing 0.2% Triton X-100 in PBS for 30 min at room temperature. Cells were rinsed with PBS and then incubated with primary antibodies for 1 h at room temperature or overnight at 4° C. Cells were then labeled with the appropriate fluorescently tagged secondary antibodies. Hoechst nuclear dye was used to label nuclei. Gems were counted in 100 nuclei, and positively stained neurons were counted and measured on five areas on each of three coverslips using Metamorph software. All data were analyzed using Prizm statistical software.
(§2) Finally, we assessed whether SMN-inducing compounds could increase SMN levels in the iPS-SMA cellular context because this would be an important proof-of-principle for the further development of drug screens. […] We are at present assessing gem formation in differentiating motor neurons and have shown that they can indeed be detected (FIG. 14A, B).

iPS-WT cells = experiment: Nuclear gem localization (SMN immunostaining) in iPS-WT-derived neurons and astrocytes after drug treatment; details: 1 mM valproic acid or tobramycin; 2 days of drug treatment
Protocol: as §1, §2

SMILES | increase in SMN protein levels compared to untreated iPS-SMA cells [1] | number of gems in treated compared to untreated iPS-SMA cells (iPS-SMA cells) | gem localization in treated compared to untreated iPS-WT cells (iPS-WT cells)
CCCC(CCC)C(=O)O [valproic acid] | 2 fold | significant increase in the number of gems; also recorded: significantly increased the number of gems | no significant increase in gem localization
NC[C@H]1O[C@H](O[C@H]2[C@H](O)[C@@H](O[C@H]3O[C@H](CO)[C@@H](O)[C@H](N)[C@H]3O)[C@H](N)C[C@@H]2N)[C@H](N)C[C@@H]1O [tobramycin] | 3 fold | significant increase in the number of gems; also recorded: significantly increased the number of gems | no significant increase in gem localization

Reference: patent publication US8211631B2, “In vitro model of spinal muscular atrophy” (Wisconsin Alumni Research Foundation, priority 2008, dated 2012)
